Where two headings read alike, the source gives them in different places.

As a reminder, the IC50 is the concentration that gives 50% inhibition. Low values mean greater potency in that assay, high ones weaker potency in that assay.

Assay [1] concerns the target T1, human orexin-2 receptor (Homo sapiens (Human), UniProt O43614). Briefly: radioligand binding assay, hOX2R BIND. On the procedure:
(§1) In a typical experiment the OX1 and OX2 receptor antagonistic activity of the compounds of the present invention was determined in accordance with the following experimental method. For intracellular calcium measurements, Chinese hamster ovary (CHO) cells expressing the rat orexin-1 receptor or the human orexin-2 receptor, are grown in Iscove's modified DMEM containing 2 mM L-glutamine, […], 1% hypoxanthine-thymidine supplement, 100 U/ml penicillin, 100 μg/ml streptomycin and 10% heat-inactivated fetal calf serum (FCS). The cells are seeded at 20,000 cells/well into Becton-Dickinson black 384-well clear bottom sterile plates coated with poly-D-lysine. All reagents were from GIBCO-Invitrogen Corp. The seeded plates are incubated overnight at 37° C. and 5% CO2. Ala-6,12 human orexin-A as the agonist is prepared as a 1 mM stock solution in 1% bovine serum albumin (BSA) and diluted in assay buffer (HBSS containing 20 mM HEPES, 0.1% BSA and 2.5 mM probenecid, pH7.4) for use in the assay at a final concentration of 70 pM. Test compounds are prepared as 10 mM stock solution in DMSO, then diluted in 384-well plates, first in DMSO, then assay buffer. On the day of the assay, cells are washed 3 times with 100 μl assay buffer and then incubated for 60 min (37° C., 5% CO2) in 60 μl assay buffer containing 1 μM Fluo-4AM ester, 0.02% pluronic acid, and 1% BSA. The dye loading solution is then aspirated and cells are washed 3 times with 100 μl assay buffer. 30 μl of that same buffer is left in each well. Within the Fluorescent Imaging Plate Reader (FLIPR, Molecular Devices), test compounds are added to the plate in a volume of 25 μl, incubated for 5 min and finally 25 μl of agonist is added. Fluorescence is measured for each well at 1 second intervals for 5 minutes and the height of each fluorescence peak is compared to the height of the fluorescence peak induced by 70 pM Ala-6,12 orexin-A with buffer in place of antagonist. […] Alternatively, compound potency can be assessed by a radioligand binding assay (described in Bergman et. al. Bioorg. Med. Chem. Lett. 2008, 18, 1425-1430) in which the inhibition constant (Ki) is determined in membranes prepared from CHO cells expressing either the OX1 or OX2 receptor. The intrinsic orexin receptor antagonist activity of a compound which may be used in the present invention may be determined by these assays.

Assay [2] deals with T1, human orexin-2 receptor. Briefly: FLIPR Ca2+ Flux Assay, hOX2R FLIPR. The format is cell-based. The note with it: CHO cells, 70 pM Ala-6,12 human orexin-A agonist. On the procedure: as §1
On the technique in general: Calcium flux is commonly read through the fluorescence of an indicator in the cells.

Assay [3] addresses T2, hOX1R (orexin-1 receptor) (Rattus norvegicus, UniProt P56718). Briefly: FLIPR Ca2+ Flux Assay, hOX1R FLIPR. The format is cell-based. The note with it: CHO cells, 70 pM Ala-6,12 human orexin-A agonist. The protocol:
as §1

In assay [4] the target is T2, hOX1R (orexin-1 receptor). Briefly: radioligand binding assay, hOX1R BIND. The following applies: membranes from CHO cells expressing OX1 receptor; read-out: hOX1R BIND hKi. The protocol:
In a typical experiment the OX1 and OX2 receptor antagonistic activity of the compounds of the present invention was determined in accordance with the following experimental method. For intracellular calcium measurements, Chinese hamster ovary (CHO) cells expressing the rat orexin-1 receptor or the human orexin-2 receptor, are grown in Iscove's modified DMEM containing 2 mM L-glutamine, […], 1% hypoxanthine-thymidine supplement, 100 U/ml penicillin, 100 μg/ml streptomycin and 10% heat-inactivated fetal calf serum (FCS). The cells are seeded at 20,000 cells/well into Becton-Dickinson black 384-well clear bottom sterile plates coated with poly-D-lysine. […] Within the Fluorescent Imaging Plate Reader (FLIPR, Molecular Devices), test compounds are added to the plate in a volume of 25 μl, incubated for 5 min and finally 25 μl of agonist is added. Fluorescence is measured for each well at 1 second intervals for 5 minutes and the height of each fluorescence peak is compared to the height of the fluorescence peak induced by 70 pM Ala-6,12 orexin-A with buffer in place of antagonist. […] Alternatively, compound potency can be assessed by a radioligand binding assay (described in Bergman et. al. Bioorg. Med. Chem. Lett. 2008, 18, 1425-1430) in which the inhibition constant (Ki) is determined in membranes prepared from CHO cells expressing either the OX1 or OX2 receptor. […]

[5] abbreviates: membranes from CHO cells expressing OX2 receptor, read-out: hOX2R BIND hKi.

T1 sequence (O43614 whole entry): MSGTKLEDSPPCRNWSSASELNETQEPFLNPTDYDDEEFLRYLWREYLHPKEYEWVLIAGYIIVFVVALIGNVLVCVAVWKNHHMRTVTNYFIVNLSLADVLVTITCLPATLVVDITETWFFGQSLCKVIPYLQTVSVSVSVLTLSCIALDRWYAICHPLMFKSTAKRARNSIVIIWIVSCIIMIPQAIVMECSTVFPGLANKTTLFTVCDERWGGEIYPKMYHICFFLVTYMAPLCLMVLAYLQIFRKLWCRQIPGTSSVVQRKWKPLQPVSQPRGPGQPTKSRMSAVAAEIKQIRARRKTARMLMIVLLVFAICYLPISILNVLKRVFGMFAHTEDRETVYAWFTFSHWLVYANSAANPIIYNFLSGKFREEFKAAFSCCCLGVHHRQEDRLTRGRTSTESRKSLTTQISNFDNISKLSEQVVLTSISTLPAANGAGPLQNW
T2 sequence (P56718 whole entry, looked up): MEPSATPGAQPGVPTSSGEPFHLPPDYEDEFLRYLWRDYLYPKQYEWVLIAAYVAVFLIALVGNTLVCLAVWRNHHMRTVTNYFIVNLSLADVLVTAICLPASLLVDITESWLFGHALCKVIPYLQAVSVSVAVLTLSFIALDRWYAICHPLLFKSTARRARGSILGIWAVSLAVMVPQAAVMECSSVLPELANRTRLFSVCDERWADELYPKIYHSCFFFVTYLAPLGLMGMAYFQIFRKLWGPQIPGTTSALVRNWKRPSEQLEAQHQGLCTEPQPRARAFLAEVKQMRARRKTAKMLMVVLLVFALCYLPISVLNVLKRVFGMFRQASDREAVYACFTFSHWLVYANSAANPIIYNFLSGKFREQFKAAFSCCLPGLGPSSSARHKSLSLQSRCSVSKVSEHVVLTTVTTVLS

On to `COC(=O)c1c(C#N)ccnc1O[C@@H]1CC[C@@H](C)N(C(=O)c2cc(C)ccc2-n2nccn2)C1` [Example 18, methyl 4-cyano-2-{[(3R,6R)-6-methyl-1-{[5-methyl-2-(2H-1,2,3-triazol-2-yl)phenyl]carbonyl}piperidin-3-yl]oxy}pyridine-3-carboxylate], for which the Ki on human orexin-2 receptor [1] (setting [5]) worked out at 0.48 nM. For the same molecule, the values for the IC50 (at human orexin-2 receptor [2]; in assay [3]) were 22 nM and 311 nM, respectively.
The corresponding values for `COC(=O)c1c(C#N)ccnc1O[C@@H]1CC[C@@H](C)N(C(=O)c2c(C)cccc2-n2nccn2)C1` [Example 19, methyl 4-cyano-2-{[(3R,6R)-6-methyl-1-{[2-methyl-6-(2H-1,2,3-triazol-2-yl)phenyl]carbonyl}piperidin-3-yl]oxy}pyridine-3-carboxylate] are 0.26 nM, 16.9 nM and 208 nM.
`COC(=O)c1c(C#N)ccnc1O[C@@H]1CCC(C)N(C(=O)c2ccccc2-c2ncccn2)C1` (stereo partly shown) [Example 20]: the Ki at human orexin-2 receptor [1] (setting [5]) worked out at 0.54 nM; in assay [4], 30.8 nM. The IC50 is 23.8 nM on human orexin-2 receptor [2] and 417 nM in assay [3].
Take `COC(=O)c1c(C#N)ccnc1O[C@@H]1CC[C@@H](C)N(C(=O)c2ccc(F)cc2-c2ncccn2)C1` [Example 22, methyl 4-cyano-2-({(3R,6R)-1-[(4-fluoro-2-pyrimidin-2-ylphenyl)carbonyl]-6-methylpiperidin-3-yl}oxy)pyridine-3-carboxylate]: the Ki at human orexin-2 receptor [1] (setting [5]) stood at 0.68 nM. The values for the IC50 (at human orexin-2 receptor [2]; in assay [3]) were 33.6 nM and 711 nM, respectively.
As for `COC(=O)c1c(C#N)ccnc1O[C@@H]1CC[C@@H](C)N(C(=O)c2cc(F)ccc2-c2ncccn2)C1` [Example 23, methyl 4-cyano-2-({(3R,6R)-1-[(5-fluoro-2-pyrimidin-2-ylphenyl)carbonyl]-6-methylpiperidin-3-yl}oxy)pyridine-3-carboxylate], the Ki at human orexin-2 receptor [1] (setting [5]) turned out to be 0.47 nM. Also, the figures for the concentration for half-maximal inhibition (IC50) (on human orexin-2 receptor [2]; in assay [3]) were 32 nM and 417 nM, respectively.
`COC(=O)c1c(C#N)ccnc1O[C@@H]1CC[C@@H](C)N(C(=O)c2ccccc2-n2ncnn2)C1` [Example 25] yielded a Ki at human orexin-2 receptor [1] of 0.76 nM. For the same molecule, the IC50 at human orexin-2 receptor [2] is 7 nM; in assay [3], 1290 nM.

The values are drawn from patent US9586950B2 (MERCK SHARP & DOHME CORP., priority 2012, dated 2017).
